# Measurements published in ChEMBL document CHEMBL1201862, “PubChem BioAssay data set” (2004).
#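 Briefly, cells in 96-well plates were exposed to five compound concentrations for 48 h, and endpoints were estimated by linear interpolation. At the GI50, growth is halved.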 Active and inactive are the calls of the source. Rule as the data show it: active = GI50 up to about 1.1 µM and inactive = higher.
# What was measured:
# Experiment in all cases: inhibition of tumour cell growth, NCI panel, 48 h
# SW-620 = test system: SW-620
# SK-MEL-2 = test system: SK-MEL-2
# SN12C = test system: SN12C
# Hs-578T = test system: Hs-578T
# DU-145 = test system: DU-145
# MDA-N = test system: MDA-N
# ACHN = test system: ACHN
# UACC-62 = test system: UACC-62
# OVCAR-4 = test system: OVCAR-4
# M14 = test system: M14
# SNB-19 = test system: SNB-19
# RPMI-8226 = test system: RPMI-8226
# UACC-257 = test system: UACC-257
# NCI/ADR-RES = test system: NCI/ADR-RES
# MOLT-4 = test system: MOLT-4
# SK-MEL-28 = test system: SK-MEL-28
# SR = test system: SR
# SF-295 = test system: SF-295
# MDA-MB-231 = test system: MDA-MB-231
# 786-0 = test system: 786-0
Compound,GI50 (SW-620),GI50 (SK-MEL-2),GI50 (SN12C),GI50 (Hs-578T),GI50 (DU-145),GI50 (MDA-N),GI50 (ACHN),GI50 (UACC-62),GI50 (OVCAR-4),GI50 (M14),GI50 (SNB-19),GI50 (RPMI-8226),GI50 (UACC-257),GI50 (NCI/ADR-RES),GI50 (MOLT-4),GI50 (SK-MEL-28),GI50 (SR),GI50 (SF-295),GI50 (MDA-MB-231),GI50 (786-0)
CC(=O)OCC1OC(n2cc(F)c(=O)[nH]c2=O)C(OC(C)=O)C1OC(C)=O (stereo not given),9.86 µM (inactive),28.2 µM (inactive),32.5 µM (inactive),> 59.3 µM (inactive),70.5 µM (inactive),11.5 µM (inactive),12.9 µM (inactive),17.5 µM (inactive),30.3 µM (inactive),48.9 µM (inactive),30.8 µM (inactive),19.8 µM (inactive),47.3 µM (inactive),37.4 µM (inactive),4.13 µM (inactive),25.2 µM (inactive),6.73 µM (inactive),52.7 µM (inactive),34.6 µM (inactive),12.2 µM (inactive)
CCc1nc2cc3cccnc3c(Cl)c2[nH]c1=O,> 100 µM (inactive),> 100 µM (inactive),> 100 µM (inactive),> 100 µM (inactive),> 100 µM (inactive),> 100 µM (inactive),78.7 µM (inactive),> 100 µM (inactive),> 100 µM (inactive),> 100 µM (inactive),58.3 µM (inactive),> 100 µM (inactive),> 100 µM (inactive),79.1 µM (inactive),> 100 µM (inactive),> 100 µM (inactive),> 100 µM (inactive),> 100 µM (inactive),> 100 µM (inactive),79.8 µM (inactive)
COC(O)C(=O)c1c2c(cc3c1CCC3)CCCC2 (stereo not given),3.44 µM (inactive),11.4 µM (inactive),4.66 µM (inactive),4.22 µM (inactive),14.1 µM (inactive),13 µM (inactive),8.38 µM (inactive),3.47 µM (inactive),7.31 µM (inactive),10.2 µM (inactive),17.2 µM (inactive),2.46 µM (inactive),12.6 µM (inactive),14.7 µM (inactive),3.38 µM (inactive),9.48 µM (inactive),4 µM (inactive),10.5 µM (inactive),9.64 µM (inactive),14.1 µM (inactive)
Cc1ccc(CN2CCN(Cc3ccc(C)o3)C(C)C2)o1 (stereo not given),> 100 µM (inactive),> 100 µM (inactive),> 100 µM (inactive),> 100 µM (inactive),> 100 µM (inactive),> 100 µM (inactive),> 100 µM (inactive),> 100 µM (inactive),> 100 µM (inactive),> 100 µM (inactive),> 100 µM (inactive),> 100 µM (inactive),> 100 µM (inactive),> 100 µM (inactive),> 100 µM (inactive),> 100 µM (inactive),> 100 µM (inactive),> 100 µM (inactive),> 100 µM (inactive),> 100 µM (inactive)
O=c1[nH]c(=S)[nH]n1C(=S)n1[nH]c(=S)[nH]c1=O,> 100 µM (inactive),> 100 µM (inactive),> 100 µM (inactive),> 100 µM (inactive),> 100 µM (inactive),> 100 µM (inactive),> 100 µM (inactive),> 100 µM (inactive),> 100 µM (inactive),> 100 µM (inactive),> 100 µM (inactive),89.1 µM (inactive),> 100 µM (inactive),> 100 µM (inactive),> 100 µM (inactive),> 100 µM (inactive),41.4 µM (inactive),> 100 µM (inactive),> 100 µM (inactive),> 100 µM (inactive)
C=C1CC(C)(COc2ccc3ccc(=O)oc3c2)OC1=O (stereo not given),0.822 µM (active),1.31 µM (inactive),8.22 µM (inactive),4.91 µM (inactive),3.22 µM (inactive),0.951 µM (active),3.46 µM (inactive),2.94 µM (inactive),2.84 µM (inactive),1.14 µM (inactive),18.7 µM (inactive),0.757 µM (active),0.671 µM (active),1.04 µM (active),1.18 µM (inactive),2.94 µM (inactive),1.08 µM (active),5.68 µM (inactive),8.28 µM (inactive),1.42 µM (inactive)
CC(C)CC(C(N)=O)C(=O)NC(Cc1ccccc1)NC(=O)CNC(=O)C(C)NC(=O)C(N)Cc1ccc(O)cc1 (stereo not given),> 100 µM (inactive),> 100 µM (inactive),> 100 µM (inactive),> 100 µM (inactive),> 100 µM (inactive),> 100 µM (inactive),> 100 µM (inactive),> 100 µM (inactive),> 100 µM (inactive),> 100 µM (inactive),> 100 µM (inactive),> 100 µM (inactive),> 100 µM (inactive),> 100 µM (inactive),> 100 µM (inactive),> 100 µM (inactive),> 100 µM (inactive),> 100 µM (inactive),> 100 µM (inactive),> 100 µM (inactive)
O=C1CCc2ccc3c(c21)CC1(Cc2ccccc2C1)C3,4.47 µM (inactive),14.2 µM (inactive),4.8 µM (inactive),25.8 µM (inactive),13 µM (inactive),2.69 µM (inactive),5.27 µM (inactive),7.1 µM (inactive),10.5 µM (inactive),4.73 µM (inactive),23.1 µM (inactive),6.55 µM (inactive),5.48 µM (inactive),5.5 µM (inactive),3.8 µM (inactive),4.37 µM (inactive),3.58 µM (inactive),3.72 µM (inactive),4.45 µM (inactive),6.58 µM (inactive)
O=S(=O)(Cc1nc2ccccc2s1)c1nc2ccccc2s1,17.2 µM (inactive),17.4 µM (inactive),16.8 µM (inactive),19.9 µM (inactive),17.9 µM (inactive),15.5 µM (inactive),16.3 µM (inactive),16 µM (inactive),16.9 µM (inactive),13 µM (inactive),21.5 µM (inactive),16 µM (inactive),15.8 µM (inactive),43.2 µM (inactive),17.6 µM (inactive),15.6 µM (inactive),4.72 µM (inactive),26.2 µM (inactive),17.1 µM (inactive),17.4 µM (inactive)
COc1ccc2ccccc2c1/C=C/C(=O)c1ccccc1,2.54 µM (inactive),1.56 µM (inactive),2.88 µM (inactive),2.92 µM (inactive),2.4 µM (inactive),2.94 µM (inactive),3.33 µM (inactive),2.89 µM (inactive),2.74 µM (inactive),3.13 µM (inactive),3.24 µM (inactive),1.44 µM (inactive),4.05 µM (inactive),3.01 µM (inactive),2.84 µM (inactive),5.96 µM (inactive),1.06 µM (active),3.75 µM (inactive),2.66 µM (inactive),2.87 µM (inactive)
COc1cc2ccccc2c2cc([N+](=O)[O-])oc12,0.893 µM (active),0.197 µM (active),0.927 µM (active),2.28 µM (inactive),0.265 µM (active),0.216 µM (active),0.174 µM (active),0.809 µM (active),3.48 µM (inactive),0.142 µM (active),0.811 µM (active),0.619 µM (active),0.179 µM (active),1.43 µM (inactive),0.0792 µM (active),0.261 µM (active),0.0859 µM (active),1.39 µM (inactive),0.655 µM (active),0.374 µM (active)
CC1CC(C)(O)CC(C(O)CC2CC(=O)NC(=O)C2)C1=O (stereo not given) [RESACTIN A],0.0294 µM (active),0.0585 µM (active),0.0202 µM (active),< 0.0126 µM (active),0.0461 µM (active),0.0372 µM (active),0.0224 µM (active),0.0413 µM (active),0.0447 µM (active),0.034 µM (active),0.0303 µM (active),0.0456 µM (active),0.0541 µM (active),0.232 µM (active),0.0151 µM (active),0.0478 µM (active),0.0251 µM (active),< 0.0149 µM (active),< 0.01 µM (active),0.0252 µM (active)
